Reference: article PMC7501296, “Rapid and direct control of target protein levels with VHL-recruiting dTAG molecules” (Nature Communications, 2020)
“And” between values parts separate entries of the source, which are not always exact repeats. Equal entries are not always repeated.

Legend:
Format in all cases: cell-based
[1] = tested on: PATU-8902 FKBP12^F36V-KRAS^G12V; KRAS^-/- clone; test: Antiproliferation, PATU-8902 FKBP12F36V-KRASG12V; KRAS-/- clone, 2D-monolayer (CellTiter-Glo)
Experimental: (§1) Cell viability was assayed in 2D-adherent or ultra-low adherent 3D-spheroids using CellTiter-Glo (Promega)[6],[15]. Luminescence was measured on an Envision 2104 plate reader (PerkinElmer) and Fluostar Omega Reader (BMG Labtech) and data was analyzed using GraphPad PRISM v8. Synergy assessments were performed using CellTiter-Glo (Promega) with the following modifications to the protocol described in the ref. [34]. In brief, EWS502 cells were plated at 1000 cells per well in 50 µL of appropriate media in 384-well white culture plates (Corning) allowed to adhere overnight, and 100 nL of compounds were added using a Janus Workstation pin tool (PerkinElmer) for 72 h. Cell viability was measured by addition of 10 µL of CellTiter-glo (Promega), followed by incubation for 15 minutes at room temperature. Luminescence was measured on an Envision 2104 plate reader (PerkinElmer) and data was analyzed using GraphPad PRISM v8.

[2] = tested on: PATU-8902 LACZ-FKBP12^F36V clone; test: Antiproliferation, PATU-8902 LACZ-FKBP12F36V clone, 2D-monolayer (CellTiter-Glo)
Experimental: as §1

[3] = tested on: PATU-8902 FKBP12^F36V-KRAS^G12V; KRAS^-/- clone; test: Antiproliferation, PATU-8902 FKBP12F36V-KRASG12V; KRAS-/- clone, 3D-spheroid (CellTiter-Glo); settings: FKBP12F36V-KRASG12V, KRAS-/-, 3D-spheroid, replicate values
Experimental: as §1

[4] = target: T1, FKBP12^WT-Nluc (Homo sapiens, UniProt P62942); test: FKBP12WT-Nluc dual luciferase assay (293FT); settings: 293FT FKBP12WT-Nluc, 24 h
T1 construct: expressed in transfected cells; host or cells: 293FT
T1 sequence (P62942 2-108 limits assumed): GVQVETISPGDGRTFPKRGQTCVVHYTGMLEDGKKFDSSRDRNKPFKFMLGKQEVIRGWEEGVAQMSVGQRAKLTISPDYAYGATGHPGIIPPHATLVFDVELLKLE
Experimental: (§2) Dual luciferase assays were performed using 293FT FKBP12^WT-Nluc and FKBP12^F36V-Nluc cells. In brief, cells were plated at 2000 cells per well in 20 µL of appropriate media in 384-well white culture plates (Corning), allowed to adhere overnight, and 100 nL of compounds were added using a Janus Workstation pin tool (PerkinElmer) for 24 h at 37 °C. To evaluate Fluc signal, plates were brought to room temperature, 20 µL of Dual-Glo Reagent (Promega) was added for 10 min and luminescence was measured on an Envision 2104 plate reader (PerkinElmer). Subsequently, 20 µL of Dual-Glo Stop & Glo Reagent (Promega) was added for 10 min and luminescence was again measured to capture Nluc signal. DMSO-normalized ratios of Nluc/Fluc signal was analyzed and plotted using GraphPad PRISM v8[6].

[5] = target: T2, FKBP12^F36V-Nluc (Homo sapiens, UniProt P62942, F37V); test: FKBP12F36V-Nluc dual luciferase assay (293FT); settings: 293FT FKBP12F36V-Nluc, 24 h
T2 construct: expressed in transfected cells; host or cells: 293FT
T2 sequence (P62942 2-108 F37V limits assumed): as the sequence (P62942 2-108 limits assumed) above, with F36V counted along it
Experimental: as §2

[6] = tested on: PATU-8902 LACZ-FKBP12^F36V clone; test: Antiproliferation, PATU-8902 LACZ-FKBP12F36V clone, 3D-spheroid (CellTiter-Glo)
Experimental: as §1

[7] = log10[compound] (M) -5.69897, replicate values
[8] = log10[compound] (M) -6.19897, replicate values
[9] = log10[compound] (M) -6.69897, replicate values
[10] = log10[compound] (M) -7.19897, replicate values
[11] = log10[compound] (M) -7.69897, replicate values
[12] = log10[compound] (M) -8.19897, replicate values
[13] = log10[compound] (M) -8.69897, replicate values
[14] = log10[compound] (M) -9.19897, replicate values
[15] = log10[compound] (M) -9.69897, replicate values
[16] = log10[compound] (M) -10.199, replicate values
[17] = log10[compound] (M) -5.30103, single replicates
[18] = log10[compound] (M) -5.80103, single replicates
[19] = log10[compound] (M) -6.30103, single replicates
[20] = log10[compound] (M) -6.80103, single replicates
[21] = log10[compound] (M) -7.30103, single replicates
[22] = log10[compound] (M) -7.80103, single replicates
[23] = log10[compound] (M) -8.30103, single replicates
[24] = log10[compound] (M) -8.80103, single replicates
[25] = log10[compound] (M) -9.30103, single replicates
[26] = log10[compound] (M) -9.80103, single replicates

## CC[C@H](C(=O)N1CCCC[C@H]1C(=O)O[C@H](CCc1ccc(OC)c(OC)c1)c1ccccc1OCC(=O)NCCCCCCCCNc1ccc2c(c1)C(=O)N(C1CCCNC1=O)C2=O)c1cc(OC)c(OC)c(OC)c1 (stereo partly drawn) [dTAG-47-NEG]
[1]; [7]
  DMSO-normalized antiproliferation: 74.7022 and 73.4799 and 58.8574 and 61.1381
[1]; [8]
  DMSO-normalized antiproliferation: 87.1466 and 90.577 and 94.4269 and 106.738
[1]; [9]
  DMSO-normalized antiproliferation: 79.5247 and 86.4598 and 105.965 and 87.3723
[1]; [10]
  DMSO-normalized antiproliferation: 125.17 and 98.7432 and 116.205 and 122.113
[1]; [11]
  DMSO-normalized antiproliferation: 90.1708 and 148.45 and 111.91 and 91.8745
[1]; [12]
  DMSO-normalized antiproliferation: 119.425 and 116.853 and 127.987 and 145.045
[1]; [13]
  DMSO-normalized antiproliferation: 87.2626 and 88.668 and 110.555 and 114.959
[1]; [14]
  DMSO-normalized antiproliferation: 135.954 and 152.721 and 117.778 and 94.3712
[1]; [15]
  DMSO-normalized antiproliferation: 100.893 and 117.34 and 101.502 and 86.7015
[1]; [16]
  DMSO-normalized antiproliferation: 99.6176 and 90.8045 and 95.2889 and 85.7881
[2]; [7]
  DMSO-normalized antiproliferation: 66.1984 and 57.9546 and 80.6556 and 62.9228
[2]; [8]
  DMSO-normalized antiproliferation: 65.6828 and 85.4625 and 78.6518 and 76.5663
[2]; [9]
  DMSO-normalized antiproliferation: 102.61 and 78.6871 and 110.55 and 102.23
[2]; [10]
  DMSO-normalized antiproliferation: 104.837 and 92.9898 and 109.382 and 132.676
[2]; [11]
  DMSO-normalized antiproliferation: 141.282 and 157.373 and 114.442 and 100.315
[2]; [12]
  DMSO-normalized antiproliferation: 95.0388 and 126.489 and 147.158 and 156.144
[2]; [13]
  DMSO-normalized antiproliferation: 96.771 and 104.289 and 112.53 and 88.7912
[2]; [14]
  DMSO-normalized antiproliferation: 117.441 and 113.828 and 97.736 and 88.8651
[2]; [15]
  DMSO-normalized antiproliferation: 104.694 and 108.624 and 153.334 and 121.648
[2]; [16]
  DMSO-normalized antiproliferation: 108.17 and 124.096 and 109.419 and 107.694
[3]; log10[compound] (M) -5.69897
  DMSO-normalized antiproliferation: 82.482 and 87.6886 and 103.208 and 99.4884
[3]; log10[compound] (M) -6.19897
  DMSO-normalized antiproliferation: 113.805 and 93.9254 and 98.397 and 96.9436
[3]; log10[compound] (M) -6.69897
  DMSO-normalized antiproliferation: 123.227 and 117.041 and 133.19 and 118.656
[3]; log10[compound] (M) -7.19897
  DMSO-normalized antiproliferation: 81.3571 and 110.96 and 121.028 and 111.088
[3]; log10[compound] (M) -7.69897
  DMSO-normalized antiproliferation: 122.42 and 111.862 and 100.29 and 122.927
[3]; log10[compound] (M) -8.19897
  DMSO-normalized antiproliferation: 142.5 and 118.093 and 120.226 and 127.732
[3]; log10[compound] (M) -8.69897
  DMSO-normalized antiproliferation: 121.028 and 116.139 and 119.196 and 128.785
[3]; log10[compound] (M) -9.19897
  DMSO-normalized antiproliferation: 130.238 and 109.673 and 113.755 and 125.733
[3]; log10[compound] (M) -9.69897
  DMSO-normalized antiproliferation: 131.246 and 139.231 and 145.63 and 98.1297
[3]; log10[compound] (M) -10.199
  DMSO-normalized antiproliferation: 85.3442 and 82.6434 and 122.826 and 96.2419
[4]; [17]
  DMSO-normalized ratio of Nluc/Fluc signal: 112.983 and 133.743 and 109.836 and 118.552
[4]; [18]
  DMSO-normalized ratio of Nluc/Fluc signal: 88.6495 and 108.291 and 97.1172 and 97.9891
[4]; [19]
  DMSO-normalized ratio of Nluc/Fluc signal: 84.7288 and 98.5773 and 69.8656 and 85.4355
[4]; [20]
  DMSO-normalized ratio of Nluc/Fluc signal: 111.882 and 117.981 and 82.1602 and 97.6002
[4]; [21]
  DMSO-normalized ratio of Nluc/Fluc signal: 80.9372 and 116.345 and 96.4274 and 100.006
[4]; [22]
  DMSO-normalized ratio of Nluc/Fluc signal: 91.8268 and 107.899 and 89.5705 and 101.339
[4]; [23]
  DMSO-normalized ratio of Nluc/Fluc signal: 96.8786 and 106.696 and 109.119 and 135.476
[4]; [24]
  DMSO-normalized ratio of Nluc/Fluc signal: 100.791 and 113.508 and 74.3676 and 105.961
[4]; [25]
  DMSO-normalized ratio of Nluc/Fluc signal: 140.604 and 140.668 and 98.5907 and 115.954
[4]; [26]
  DMSO-normalized ratio of Nluc/Fluc signal: 87.4488 and 119.502 and 82.5871 and 99.1801
[5]; [17]
  DMSO-normalized ratio of Nluc/Fluc signal: 107.204 and 133.65 and 125.111 and 106.713
[5]; [18]
  DMSO-normalized ratio of Nluc/Fluc signal: 105.202 and 100.221 and 87.7709 and 98.1806
[5]; [19]
  DMSO-normalized ratio of Nluc/Fluc signal: 114.516 and 112.689 and 63.1557 and 96.6176
[5]; [20]
  DMSO-normalized ratio of Nluc/Fluc signal: 115.914 and 94.4993 and 79.2868 and 83.2258
[5]; [21]
  DMSO-normalized ratio of Nluc/Fluc signal: 95.8358 and 90.9039 and 76.6637 and 114.52
[5]; [22]
  DMSO-normalized ratio of Nluc/Fluc signal: 93.9184 and 139.979 and 82.2221 and 91.2143
[5]; [23]
  DMSO-normalized ratio of Nluc/Fluc signal: 91.746 and 110.613 and 89.992 and 115.75
[5]; [24]
  DMSO-normalized ratio of Nluc/Fluc signal: 108.43 and 84.8167 and 129.223 and 114.161
[5]; [25]
  DMSO-normalized ratio of Nluc/Fluc signal: 128.159 and 120.38 and 100.065 and 103.942
[5]; [26]
  DMSO-normalized ratio of Nluc/Fluc signal: 95.5174 and 90.4935 and 78.1755 and 112.193
[6]; [7]
  DMSO-normalized antiproliferation: 97.4751 and 103.304 and 87.3281 and 98.4167
[6]; [8]
  DMSO-normalized antiproliferation: 115.352 and 92.3949 and 111.46 and 98.7799
[6]; [9]
  DMSO-normalized antiproliferation: 115.675 and 135.633 and 120.527 and 101.762
[6]; [10]
  DMSO-normalized antiproliferation: 132.781 and 104.479 and 141.691 and 94.0763
[6]; [11]
  DMSO-normalized antiproliferation: 113.77 and 136.938 and 126.087 and 111.72
[6]; [12]
  DMSO-normalized antiproliferation: 141.265 and 116.402 and 127.835 and 120.491
[6]; [13]
  DMSO-normalized antiproliferation: 117.15 and 123.8 and 115.155 and 128.638
[6]; [14]
  DMSO-normalized antiproliferation: 109.537 and 110.734 and 119.818 and 124.491
[6]; [15]
  DMSO-normalized antiproliferation: 101.506 and 115.774 and 112.487 and 105.932
[6]; [16]
  DMSO-normalized antiproliferation: 91.3412 and 111.541 and 123.365 and 101.901
